Laboratory results from US10533034B2, “Human iNKT cell activation using glycolipids” (ACADEMIA SINICA, priority 2014, dated 2020).

What was measured:
[1] = test system: B6 Jα18 KO mice splenocytes; experiment: FACS analyses of Jα18 KO mouse immune cells after glycolipid stimulation; assay type: in vivo; settings: 1 μg/mouse i.v.; 3 days
Protocol: B6 Jα18 KO mice treated with the indicated glycolipid (1 μg/mouse) or vehicle (% DMSO in PBS) were sacrificed at 72 hr post-injection and their splenocytes were subjected to FACS analysis. (9A) The total splenocytes, (9B) total CD11Chi cells, (9C) CD11Chi/CD80+ cells, (9D) CD11Chi/CD86+ cells, (9E) CD4^+ T cells and (9F) CD8^+ T cells (student t test: *, p<0.05, as compared to D).
B6 WT or Jα18 KO mice treated with specific glycolipid (1 μg/mouse) or vehicle (1% DMSO in PBS) were sacrificed at 72 hr post-injection and their spleens were harvested. After pressing spleens through 70 um strainer and lysis of erythrocytes, the nucleated cells were resuspended in PBS buffer containing azide (0.05%) and stained with antibodies recognizing the indicated cell surface antigens for 30 min at 4° C. After washing, the splenocytes were subjected to FACS analysis. The antibodies against CD3, CD4, CD8α, CD11c, CD80, and CD86 were obtained from BD Bioscience-Pharmingen.
Unexpectedly, we also observed that 7DW8-5-Glc induced chemokines in Jα18 KO mice (FIG. 7).

Vα24+/Vβ11+ iNKT TCR = Vα24+/Vβ11+ iNKT TCR (Homo sapiens, UniProt A0A075B6N4+A0A0B4J240+P15813); experiment: Binding avidity of hCD1d-loaded glycolipids with Vα24+ iNKT cells (ternary interaction); settings: for Kd: in complex with hCD1d, Scatchard transformation, read-out: KD of ternary complex, hCD1d-glycolipid toward Vα24+/Vβ11+ iNKT TCR
Chain of Vα24+/Vβ11+ iNKT TCR (P01848 whole entry): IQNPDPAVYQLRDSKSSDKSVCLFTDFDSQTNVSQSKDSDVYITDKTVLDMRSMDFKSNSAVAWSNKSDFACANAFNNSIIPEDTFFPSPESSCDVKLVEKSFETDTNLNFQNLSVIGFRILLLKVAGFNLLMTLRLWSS
Chain of Vα24+/Vβ11+ iNKT TCR (A0A075B6N4 22-114): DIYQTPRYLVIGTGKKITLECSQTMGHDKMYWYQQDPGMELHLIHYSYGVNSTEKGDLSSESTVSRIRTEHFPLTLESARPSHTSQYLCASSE
Chain of Vα24+/Vβ11+ iNKT TCR (P61769 21-119, further chain): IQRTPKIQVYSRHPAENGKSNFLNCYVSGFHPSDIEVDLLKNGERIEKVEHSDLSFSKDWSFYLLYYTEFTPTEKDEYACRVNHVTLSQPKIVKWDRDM
Chain of Vα24+/Vβ11+ iNKT TCR (A0A0B4J240 22-114): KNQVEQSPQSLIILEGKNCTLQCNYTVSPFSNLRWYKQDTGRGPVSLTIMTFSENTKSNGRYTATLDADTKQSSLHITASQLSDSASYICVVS
Chain of Vα24+/Vβ11+ iNKT TCR (P15813 20-301): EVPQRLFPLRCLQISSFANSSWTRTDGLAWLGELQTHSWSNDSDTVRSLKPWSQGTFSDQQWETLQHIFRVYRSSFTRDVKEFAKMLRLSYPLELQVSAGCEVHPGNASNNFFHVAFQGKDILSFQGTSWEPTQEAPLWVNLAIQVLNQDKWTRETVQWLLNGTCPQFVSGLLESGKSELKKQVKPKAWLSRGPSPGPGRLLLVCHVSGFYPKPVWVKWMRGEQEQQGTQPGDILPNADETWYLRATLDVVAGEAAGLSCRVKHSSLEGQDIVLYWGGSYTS
Protocol: (3A) DN3A4-1.2 Vα14+ iNKT hybridoma cells and (3B) 7DW8-5-expanded Vα24^+ iNKT cells were incubated with various concentrations of the indicated dimeric mCD d-glycolipid and hCD1d-glycolipid complexes for 30 min at 4° C., respectively. The level of bound complexes at the indicated concentration was detected by anti-mIgG1 secondary antibody and analyzed by flow cytometry. The relationship between the binding percentage and the concentration of CD1ddi-glycolipids complex was plotted in mice (3A) and humans (3B). KD values in mice (3C) and humans (3D) were calculated from Scatchard transformation of the plot (3A) and 3B), respectively. Assay was performed in duplicates. Binding avidity of human CD1d-glycolipid complexes to Vα24^+ iNKT cells expanded by 7DW8-5 at 100 ng/ml was determined as described previously.^19 Next, we measured the ternary interaction between CD1d-glcolipid complex and the iNKT TCR in mice and humans. Different concentrations of mCD1d^di-glycolipid and hCD1d^di-glycolipid complexes were incubated with fixed amounts of DN3A4-1.2 murine iNKT hybridoma cells and human Vα24+/Vβ11^+ iNKT cells, respectively. The level of bound complexes at the indicated concentration was detected by anti-mIgG1 secondary antibody and analyzed by flow cytometry (FIGS. 3A and 3B). The KD of the ternary complex was calculated from the Scatchard transformation of the plots in FIGS. 3A and 3B using GraphPad Prism software. […] This was consistent with the observation that higher percentages of C1-pulsed splenocytes were stained by the mCD1d-7DW8-5 complex (36.2±5.0%) than mCD1d-7DW8-5-Glc complex (17.1±0.8%) (FIG. 11).

Jα18 KO mice = experiment: Murine serum cytokine/chemokine secretion after i.v. glycolipid, Jα18 knockout mice; assay type: in vivo; settings: 1 μg/mouse; sera 2 and 18 hr
Protocol: B6 wild type and Jα18 knockout mice were i.v. injected with the indicated glycolipids (1 μg/mouse) or vehicle. Sera collected at 2 h and 18 h post-injection were analyzed for cytokines like IL-2 (7A), IL-6 (7B), GM-CSF (7C) and TNFα (7D) as well as chemokines such as IP-10 (7E), MIG (7F), KC (7G) and MCP-1 (7H). Only MIG peaked at 18 hr post-injection, while the others peaked at 2 hr post-injection.
All the glycolipids were dissolved in 100% DMSO at a concentration of 1-2 mg/ml. For in vivo experiments, all compounds were diluted to 10 μg/ml in saline just before injection of 100 μl diluted glycolipid or 100 μl 1% DMSO into mice. Pathogen-free C57BL/6 female mice aged 6-12 weeks were obtained from the National Laboratory Animal Center (Taipei, Taiwan). Jα18 knockout (KO) B6 mice were the gifts from Dr. Masaru Taniguchi (RIKEN Research Center for Allergy and Immunology, Yokohama, Japan). All the mice were maintained in pathogen free vivarium of Institute of Cellular and Organismic Biology, Academia Sinica (Taipei, Taiwan).
B6 WT or Jα18 KO mice were intravenously injected with vehicle or glycolipids at 0.1 or 1 μg/mouse. Serum was collected at 2 and 18 h after injection for measurement of cytokines/chemokines by Beadlyte® Mouse Cytokine kit (Millipore, N.Y.) and read by a Luminex® 200™ system (Luminex, Austin, Tex.).

[2] = test system: iNKT TCR of DN3A4-1.2 Vα14+ iNKT hybridoma cells; experiment: Binding avidity of mCD1d-loaded glycolipids to Vα14+ iNKT cells (ternary interaction); set-up: species or system mouse
Protocol: (3A) DN3A4-1.2 Vα14+ iNKT hybridoma cells and (3B) 7DW8-5-expanded Vα24^+ iNKT cells were incubated with various concentrations of the indicated dimeric mCD d-glycolipid and hCD1d-glycolipid complexes for 30 min at 4° C., respectively. The level of bound complexes at the indicated concentration was detected by anti-mIgG1 secondary antibody and analyzed by flow cytometry. The relationship between the binding percentage and the concentration of CD1ddi-glycolipids complex was plotted in mice (3A) and humans (3B). KD values in mice (3C) and humans (3D) were calculated from Scatchard transformation of the plot (3A) and 3B), respectively. Assay was performed in duplicates.
Briefly, murine CD1d:Ig dimer (BD Biosciences PharMingen, San Diego, Calif.) was loaded with glycolipids at a molar ratio of 1:10 or vehicle for overnight at 37° C. Murine 1.2 Vα14+ iNKT cells were incubated with various doses of dimer-glycolipid complex in buffer containing azide (0.05%) for 30 min at 4° C. These cells were then stained with anti-mouse IgG1-PE mAb (A85-1) for another 30 min at 4° C., followed by washing, fixation with 4% paraformaldehyde (PFA), and the bound mCD1d dimer complexes were detected by flow cytometry. The binding curve and linear fit of the Scatchard transformation were plotted by Graphpad Prism software.
Next, we measured the ternary interaction between CD1d-glcolipid complex and the iNKT TCR in mice and humans. Different concentrations of mCD1d^di-glycolipid and hCD1d^di-glycolipid complexes were incubated with fixed amounts of DN3A4-1.2 murine iNKT hybridoma cells and human Vα24+/Vβ11^+ iNKT cells, respectively. The level of bound complexes at the indicated concentration was detected by anti-mIgG1 secondary antibody and analyzed by flow cytometry (FIGS. 3A and 3B). The KD of the ternary complex was calculated from the Scatchard transformation of the plots in FIGS. 3A and 3B using GraphPad Prism software. […] This was consistent with the observation that higher percentages of C1-pulsed splenocytes were stained by the mCD1d-7DW8-5 complex (36.2±5.0%) than mCD1d-7DW8-5-Glc complex (17.1±0.8%) (FIG. 11).

SMILES | total splenocytes, CD4+ T and CD8+ T cells in Jα18 KO mice [1] | Kd (Vα24+/Vβ11+ iNKT TCR) | induction of cytokines in Jα18 KO mice (Jα18 KO mice) | fold stronger interaction with iNKT TCR than mCD1d-7DW8-5-Glc complex ([2]; mCD1d complex) | expansion/activation of CD11chi monocyte-derived DCs in Jα18 KO mice [1] | secretion of chemokines KC, MCP-1, IP-10 and MIG in Jα18 KO mice (Jα18 KO mice) | staining of human iNKT cells with CD1d-glycolipid dimer (Vα24+/Vβ11+ iNKT TCR) | staining of murine iNKT cells with CD1d-glycolipid dimer [2]
CCCCCCCCCCCCCC[C@@H](O)[C@@H](O)[C@H](CO[C@H]1O[C@H](CO)[C@H](O)[C@H](O)[C@H]1O)NC(=O)CCCCCCCCCCc1ccc(F)cc1 [Compound 7DW8-5, reference compound] | No significant differences | 0.777 ± 0.022 nM | no induction | ~10 fold |  |  |  | 
CC[C@@H](O)[C@@H](O)[C@H](CO[C@H]1OC(CO)[C@@H](O)C(O)C1O)NC(=O)Cc1ccc(F)cc1 (some centres unmarked) [Compound 7DW8-5-Glc] | No significant differences | 0.481 ± 0.008 nM | no induction |  | significantly expanded and activated | triggered the secretion |  | 
CCCCCCCCCCCCCC[C@@H](O)[C@@H](O)[C@H](CO[C@H]1O[C@H](CO)[C@@H](O)[C@H](O)[C@@H]1O)NC(=O)CCCCCCCCCCc1ccc(F)cc1 [Compound 7DW8-5-Man] |  |  |  |  |  |  | lack of staining | lack of staining
